One data set deals with common cockroaches. In words: Test I: insecticidal efficacy of sprayed glass plates after 24 hours, one minute contact, common cockroaches. The following applies: compared with Dioxacarb. The data set is classed as in vivo, Blatta orientalis. The protocol: After a standing time of 24 hours, tests to determine insecticidal efficacy were carried out on common cockroaches, these being placed on the treated face of the glass plate for one minute, and then transferred for observation to ventilated glass jars. […] The proportions recorded are shown below.

The conditions of data set [1]: at 25° C.
The nature of data set [2]: Dissolution capacity of diluents/solvents for Dioxacarb and Arprocarb. It is filed as physicochemical. The following applies: at 20° C; for Dissolution capacity for DIOXACARB / Dissolving capacity for Dioxacarb: solute Dioxacarb.

Where two headings read alike, the source gives them in different places. Where only a bound is given, the exact number is not on record here.

Turning to `CNC(=O)Oc1ccccc1OC(C)C` [Arprocarb, 2-isopropoxyphenyl N-methyl-carbamate], the “insecticidal behaviour in words” value in the data set on common cockroaches is “behaves exactly as Dioxacarb”.
With `CCCCOC(=O)c1ccccc1C(=O)OCCCC` [Dibutylphthalate], the Vapour pressure in data set [1] is given as under 0.0001 Torr; in data set [1] (listed as Dibutyl phthalate), “ca. 0.0001 Torr”; in data set [1] (listed as dibutylphthalate) it was under 0.005 Torr. Besides, the “Dissolution capacity for DIOXACARB” value in data set [2] is on record as 2.7 weight %. Further, the “Dissolving capacity for Dioxacarb” value in data set [2] amounted to 2.7%.
With `CCCCCCCCCCCCC1CC(=O)OC1=O` (stereo not drawn) [2-Dodecylsuccinic-acid anhydride], the Vapour pressure in data set [1] is listed as 0.007 Torr. The “Dissolution capacity for DIOXACARB” value in data set [2] worked out at 2.9 weight %.
The matching figures for `CCCOC(C)=O` [Propylacetate]: 33 Torr and 6 weight %.
The corresponding values for `CCCCCCCCCCCCO` [Composition 1-Dodecanol, 1-Dodecanol] are 0.001 Torr and 0.8 weight %.
On to `CCCCCCCCCCCCCCCC` [Hexadecane], for which the values for the Vapour pressure in data set [1] and in data set [1] (listed as hexadecane) were 0.003 Torr and under 0.005 Torr, respectively. In addition, the “Dissolution capacity for DIOXACARB” value in data set [2] was determined as 0 weight %.
Take ter. Dodecanethiol: the Vapour pressure in data set [1] came to 0.008 Torr. The “Dissolution capacity for DIOXACARB” value in data set [2] worked out at 0.2 weight %.
Consider `CC(=O)OCC(C)C` [Isobutylacetate], for which the Vapour pressure in data set [1] amounted to 17 Torr. Further, the “Dissolution capacity for DIOXACARB” value in data set [2] is 6 weight %.
On to `COC(C)=O` [Methylacetate], for which the Vapour pressure in data set [1] is given as 216 Torr. In addition, the “Dissolution capacity for ARPROCARB” value in data set [2] (solute Arprocarb) turned out to be 41 weight %. In addition, the “Dissolving capacity for Arprocarb” value in data set [2] (solute Arprocarb, footnotes) is given as 41%. In data set [2], the “Dissolution capacity for DIOXACARB” value turned out to be 19.6 weight % and the “Dissolving capacity for Dioxacarb” value turned out to be 19.6%.
`CCOC(C)=O` [Ethylacetate] yielded a Vapour pressure in data set [1] of 97 Torr. Besides, in data set [2], the “Dissolution capacity for DIOXACARB” value was determined as 10.5 weight % and the “Dissolving capacity for Dioxacarb” value worked out at 10.5%.
In data set [1], `COCCOC(C)=O` [2-Methoxyethyl acetate] returned a Vapour pressure of 5 Torr. The “Dissolution capacity for ARPROCARB” value in data set [2] (solute Arprocarb) worked out at 33 weight %. For the same compound, the “Dissolution capacity for DIOXACARB” value in data set [2] is given as 20 weight %.
